Each structure is given as a SMILES string. Structures can show the parent of a compound that is named as a salt.

For orientation: melting point means the temperature of the solid-liquid transition. With `O=S(=O)(c1cccc(OC2CCOCC2)c1)c1ccc2c(c1)OC1CNCCC21` (centres unmarked) (as salt: HCl) [Example 571], the melting point was 184 to 186 °C. `COc1cccc(COc2cccc(S(=O)(=O)c3ccc4c(c3)OC3CNCCC43)c2)c1` (centres unmarked) (as salt: HCl) [Example 575] displayed a melting point of 247 to 248 °C. In turn, `N#Cc1ccccc1COc1cccc(S(=O)(=O)c2ccc3c(c2)OC2CNCCC32)c1` (centres unmarked) (as salt: HCl) [Example 550] registered a melting point of 194 to 195 °C.

Regarding `CC1(C)NCCc2c1oc1cc(S(=O)(=O)c3ccc(F)c(Cl)c3)ccc21` (as salt: HCl) [Example 18, 7-[(3-chloro-4-fluorophenyl)sulfonyl]-1,1-dimethyl-1,2,3,4-tetrahydro[1]benzofuro[2,3-c]pyridine], the melting point is > 200 °C (dec.).

`CC(=O)NCC1(C)NCCc2c1oc1cc(S(=O)(=O)c3cccc(F)c3)ccc21` (centres unmarked) (as salt: HCl) [Example 631, N-({7-[(3-fluorophenyl)sulfonyl]-1-methyl-1,2,3,4-tetrahydro[1]benzofuro[2,3-c]pyridin-1-yl}methyl)acetamide] registered a melting point of 217 to 227 °C. The molecule `COc1cccc(S(=O)(=O)c2ccc3c(c2)OC2CNCCC32C)c1` (racemic) (as salt: HCl) [Example 4, 7-[(3-methoxyphenyl)sulfonyl]-4a-methyl-1,2,3,4,4a,9a-hexahydro[1]benzofuro[2,3-c]pyridine] yielded a melting point of 279 to 280 °C. Regarding `CC(=O)N1CCC2(CC1)NCCc1c2oc2cc(S(=O)(=O)c3cccc(F)c3)ccc12` (as salt: HCl) [Example 41, 1-{7-[(3-fluorophenyl)sulfonyl]-3,4-dihydro-1′H,2H-spiro[1-benzofuro[2,3-c]pyridine-1,4′-piperidin]-1′-yl}ethanone], the melting point was 256 °C (dec.). The same measure for `COc1cc(OC)cc(S(=O)(=O)c2ccc3c(c2)OC2CNCCC32C)c1` (centres unmarked) (as salt: HCl) [Example 487]: 283 to 285 °C.

In turn, `CCOc1cccc(S(=O)(=O)c2ccc3c(c2)OC2CNCCC32C)c1` (racemic) (as salt: HCl) [Example 10, 7-[(3-ethoxyphenyl)sulfonyl]-4a-methyl-1,2,3,4,4a,9a-hexahydro[1]benzofuro[2,3-c]pyridine] registered a melting point of 271 to 273 °C. Molecule `CC12CCNCC1Oc1cc(S(=O)(=O)c3cccc(F)c3)ccc12` (racemic) (as salt: HCl) [Example 11, 7-[(3-fluorophenyl)sulfonyl]-4a-methyl-1,2,3,4,4a,9a-hexahydro[1]benzofuro[2,3-c]pyridine] displayed a melting point of 288 to 290 °C. `COc1cc(OCC2CC2)cc(S(=O)(=O)c2ccc3c(c2)OC2CNCCC32)c1` (centres unmarked) (as salt: HCl) [Example 585] returned a melting point of 224 to 225 °C. For the molecule `COc1ccc(S(=O)(=O)c2ccc3c(c2)OC2CNCCC32C)cc1` (racemic) (as salt: HCl) [Example 5, 7-[(4-methoxyphenyl)sulfonyl]-4a-methyl-1,2,3,4,4a,9a-hexahydro[1]benzofuro[2,3-c]pyridine], the melting point fell in the range of 283 to 284 °C.

On to `CC(C)Oc1cccc(S(=O)(=O)c2ccc3c4c(oc3c2)C2(CCOC2)NCC4)c1` (single isomer, unassigned) (as salt: HCl) [Example 31, 7-{[3-(propan-2-yloxy)phenyl]sulfonyl}-3,4,4′,5′-tetrahydro-2H-spiro[1-benzofuro[2,3-c]pyridine-1,3′-furan]], for which the melting point was 261 to 263 °C (dec.).

Take `COc1cccc(S(=O)(=O)c2ccc3c4c(oc3c2)C(C)(C)NCC4)c1` (as salt: HCl) [Example 16, 7-[(3-methoxyphenyl)sulfonyl]-1,1-dimethyl-1,2,3,4-tetrahydro[1]benzofuro[2,3-c]pyridine]: the melting point is 335 °C (dec.). As for `COCCOc1cccc(S(=O)(=O)c2ccc3c(c2)OC2CNCCC32)c1` (centres unmarked) (as salt: HCl) [Example 558], the melting point fell in the range of 210 to 213 °C. `CN(C)C(=O)c1c(F)cccc1S(=O)(=O)c1ccc2c(c1)OC1CNCCC21` (centres unmarked) (as salt: HCl) [Example 476] had a melting point of 283 to 286 °C. The molecule `CNC(=O)c1c(F)cccc1S(=O)(=O)c1ccc2c(c1)OC1CNCCC21` (centres unmarked) (as salt: HCl) [Example 477] came in with a melting point of over 200 °C. The same measure for `CC1(C2CC2)NCCc2c1oc1cc(S(=O)(=O)c3cccc(F)c3)ccc21` (racemic) (as salt: HCl) [Example 29, 1-cyclopropyl-7-[(3-fluorophenyl)sulfonyl]-1-methyl-1,2,3,4-tetrahydro[1]benzofuro[2,3-c]pyridine]: > 250 °C (dec.); for `CC(C)Oc1cccc(S(=O)(=O)c2ccc3c(c2)OC2CNCCC32C)c1` (single isomer, unassigned) (as salt: HCl) [Example 21, 4a-methyl-7-{[3-(propan-2-yloxy)phenyl]sulfonyl}-1,2,3,4,4a,9a-hexahydro[1]benzofuro[2,3-c]pyridine]: 183 to 184 °C; for `CC(C)Oc1cccc(S(=O)(=O)c2ccc3c4c(oc3c2)C2(CCOCC2)NCC4)c1` (as salt: HCl) [Example 44, 7-{[3-(propan-2-yloxy)phenyl]sulfonyl}-2′,3,3′,4,5′,6′-hexahydro-2H-spiro[1-benzofuro[2,3-c]pyridine-1,4′-pyran]]: 250 °C (dec.).

`N#Cc1cccc(COc2cccc(S(=O)(=O)c3ccc4c(c3)OC3CNCCC43)c2)c1` (centres unmarked) (as salt: HCl) [Example 552] came in with a melting point of 200 to 201 °C. In turn, `CC(C)Oc1cccc(S(=O)(=O)c2ccc3c(c2)OC2CNCCC32C)c1` (single isomer, unassigned) (as salt: HCl) [Example 20, 4a-methyl-7-{[3-(propan-2-yloxy)phenyl]sulfonyl}-1,2,3,4,4a,9a-hexahydro[1]benzofuro[2,3-c]pyridine] gave a melting point of 184 to 185 °C. The figure for `O=S(=O)(c1ccc2c(c1)OC1CNCCC21)c1cccc(OCC2CCOCC2)c1F` (centres unmarked) (as salt: HCl) [Example 482] is 175 to 177 °C; for `COc1ccccc1S(=O)(=O)c1ccc2c(c1)OC1CNCCC21C` (racemic) (as salt: HCl) [Example 3, 7-[(2-methoxyphenyl)sulfonyl]-4a-methyl-1,2,3,4,4a,9a-hexahydro[1]benzofuro[2,3-c]pyridine] it is 222 to 224 °C; for `N#CCCCCOc1cccc(S(=O)(=O)c2ccc3c(c2)OC2CNCCC32)c1` (centres unmarked) (as salt: HCl) [Example 574] it is 189 to 190 °C. In turn, `CC(C)Oc1cccc(S(=O)(=O)c2ccc3c4c(oc3c2)C(C)(C)NCC4)c1` (as salt: HCl) [Example 15, 1,1-dimethyl-7-{[3-(propan-2-yloxy)phenyl]sulfonyl}-1,2,3,4-tetrahydro[1]benzofuro[2,3-c]pyridine] registered a melting point of 243 to 245 °C.

Take `O=S(=O)(c1cccc(Oc2cnccn2)c1)c1ccc2c(c1)OC1CNCCC21` (centres unmarked) (as salt: HCl) [Example 580]: the melting point was 234 to 236 °C. For `CC(C)Oc1cccc(S(=O)(=O)c2ccc3c4c(oc3c2)C2(CCCOC2)NCC4)c1` (racemic) (as salt: HCl) [Example 23, 7-{[3-(propan-2-yloxy)phenyl]sulfonyl}-3,4,5′,6′-tetrahydro-2H,4′H-spiro[1-benzofuro[2,3-c]pyridine-1,3′-pyran]], the melting point was 148 to 155 °C (dec.). As for `CC(C)Oc1cccc(S(=O)(=O)c2ccc3c(c2)OC2CNCCC32C)c1` (racemic) (as salt: HCl) [Example 12, 4a-methyl-7-{[3-(propan-2-yloxy)phenyl]sulfonyl}-1,2,3,4,4a,9a-hexahydro[1]benzofuro[2,3-c]pyridine], the melting point fell in the range of 206 to 208 °C. `O=S(=O)(c1cccc(OCc2ccccn2)c1)c1ccc2c(c1)OC1CNCCC21` (centres unmarked) (as salt: HCl) [Example 562] yielded a melting point of 179 to 182 °C. `COc1cc(OC)cc(S(=O)(=O)c2ccc3c(c2)OC2CNCCC32)c1` (centres unmarked) (as salt: HCl) [Example 480] registered a melting point of 248 to 251 °C. `CC12CCNCC1Oc1ccc(S(=O)(=O)c3cc[n+]([O-])cc3)cc12` (racemic) (as salt: HCl) [Example 14, 4a-methyl-6-[(1-oxidopyridin-4-yl)sulfonyl]-1,2,3,4,4a,9a-hexahydro[1]benzofuro[2,3-c]pyridine] gave a melting point of 207 to 210 °C. With `CC12CCNCC1Oc1cc(S(=O)(=O)c3ccccn3)ccc12` (racemic) (as salt: HCl) [Example 8, 4a-methyl-7-(pyridin-2-ylsulfonyl)-1,2,3,4,4a,9a-hexahydro[1]benzofuro[2,3-c]pyridine], the melting point is 282 to 283 °C.

`CC1(C)CNC2(CCOCC2)c2oc3cc([S+]([O-])c4cccc(F)c4)ccc3c21` (racemic) (as salt: HCl) [Example 47, 7-[(3-fluorophenyl)sulfinyl]-4,4-dimethyl-2′,3,3′,4,5′,6′-hexahydro-2H-spiro[1-benzofuro[2,3-c]pyridine-1,4′-pyran]]: the melting point lay within 248 to 253 °C. As to `CC(=O)NCC1(C)NCCc2c1oc1cc(S(=O)(=O)c3cccc(F)c3)ccc21` (centres unmarked) (as salt: HCl) [Example 632, N-({7-[(3-fluorophenyl)sulfonyl]-1-methyl-1,2,3,4-tetrahydro[1]benzofuro[2,3-c]pyridin-1-yl}methyl)acetamide], the melting point is 210 to 260 °C. Regarding `O=S(=O)(c1cccc(F)c1)c1ccc2c3c(oc2c1)C1(CCC1)NCC3` (as salt: HCl) [Example 25, 7-[(3-fluorophenyl)sulfonyl]-3,4-dihydro-2H-spiro[1-benzofuro[2,3-c]pyridine-1,1′-cyclobutane]], the melting point was > 200 °C (dec.). The same measure for `COC(=O)CCCCOc1cccc(S(=O)(=O)c2ccc3c(c2)OC2CNCCC32)c1` (centres unmarked) (as salt: HCl) [Example 556]: 179 to 181 °C; for `CN(C)C(=O)c1c(F)cccc1S(=O)(=O)c1ccc2c3c(oc2c1)CNCC3` (as salt: HCl) [Example 479]: 245 to 248 °C.
